Measurements as given in patent US20220119355A1, “SATURATED-RING-FUSED DIHYDROPYRIMIDINONE OR DIHYDROTRIAZINONE COMPOUNDS AND PHARMACEUTICAL USE THEREOF” (Japan Tobacco Inc., priority 2018, published 2022).

Experiments:
human RORγ = target: T1, human RORγ (Homo sapiens, UniProt P51449); assay: In-vitro reporter gene assay for inhibitory activity against RORγ transcription, Test Method A (GAL4-hRORγ LBD / pG5-Luc in CHO cells); type: cell-based; conditions: luciferase reporter, 2 days
T1 construct: from Ser253 to Lys518 for human RORγ; expressed in transfected cells; host or cells: CHO cells (transient co-transfection with pG5-Luc)
T1 sequence (P51449 253-518): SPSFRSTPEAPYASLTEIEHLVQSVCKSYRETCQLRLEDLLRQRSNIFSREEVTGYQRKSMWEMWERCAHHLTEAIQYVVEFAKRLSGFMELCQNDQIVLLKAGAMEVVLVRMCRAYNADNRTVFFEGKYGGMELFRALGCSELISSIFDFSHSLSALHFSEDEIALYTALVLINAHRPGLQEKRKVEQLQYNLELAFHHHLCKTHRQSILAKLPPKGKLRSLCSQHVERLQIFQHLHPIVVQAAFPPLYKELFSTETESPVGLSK
Experimental: (§1) In-Vitro Assay for Inhibitory Activity Against RORγ Transcription
(§2) Inhibitory activity against RORγ transcription was assessed for test compounds by either of the following Test Method A or B of reporter gene assay.
(§3) cDNAs encoding human and mouse RORγ ligand binding domains (LBD) were obtained based on the sequences of human RORγ (Genbank registered number NM_005060.3) and mouse RORγ (Genbank registered number NM_011281.2) (LBD sequences: from Ser253 to Lys518 for human RORγ; from Ile251 to Lys516 for mouse RORγ).
(§4) LBD cDNAs of human and mouse RORγ were inserted into pFA-CMV vector (Stratagene), which expresses GAL4-DNA binding domain fusion protein. The resulting plasmids are hereinafter referred to as GAL4-hRORγ plasmid and GAL4-mRORγ plasmid, respectively.
(§5) GAL4-hRORγ plasmid or GAL4-mRORγ plasmid was transiently co-transfected into Chinese hamster ovary cells (CHO cells) with pG5-Luc (Promega), reporter plasmid expressing firefly luciferase in a GAL4-dependent manner.
(§6) TransIT (Registered trademark) CHO Transfection Kit (Mirus) was used to co-transfect CHO cells with the plasmids. One day prior to the assay, CHO cells were suspended in HAM F-12 Nutrient medium containing 10% (v/v) fetal bovine serum and seeded at 6×10^6 cells per 175 cm^2 cell culture flask each. 54 μL of TransIT (Registered trademark) CHO reagent was added into a 15 mL tube containing 1.16 mL of HAM F-12 Nutrient medium without fetal bovine serum, and then mixed and incubated at room temperature for 10 minutes. 36 μL of a plasmid solution containing 400 ng of GAL4-hRORγ plasmid, 9000 ng of pG5-Luc plasmid, and 8600 ng of pcDNA3 plasmid were added into the tube and mixed gently. In the case of mouse assay, a plasmid solution containing 250 ng of GAL4-mRORγ plasmid, 9000 ng of pG5-Luc plasmid, and 8750 ng of pcDNA3 plasmid was added, instead. The mixture was incubated at room temperature for 10 minutes. 9 μL each of CHO Mojo Reagent were then added into each tube and mixed gently. The mixture was incubated at room temperature for 10 minutes. The resulting transfection reagent was applied to the cell culture. After incubation at 37° C., 5% CO2 for 4 hours, the plasmid-transfected CHO cells were harvested by trypsin treatment. The collected cells were resuspended in culture medium and plated into a 384-well-white plate at 8,000 cells/50 μL/well. The plate was let stand at room temperature for 1 hour and then further incubated at 37° C., 5% CO2 for 3 hours. A test compound was dissolved in DMSO to obtain a concentration of 10 mM. Each solution was serially diluted with DMSO and further diluted with culture medium just before use. The test compound solutions were added. to the cells in the plate at 8 different concentrations. The final concentration of DMSO was 0.2% (v/v). After the addition of test compound, the cells were incubated at […], 5% CO2 for 2 days.
(§7) RORγ transcriptional activity was detected as the intracellular luciferase activity using SteadyLite HTS Reporter Gene Assay System (Perkin Elmer). SteadyLite Reagent was diluted five-fold with Extension buffer (10 mM Tricine, 0.2% (w/v) bovine serum albumin, 0.02% (v/v) Tween-20) to obtain a luciferase substrate solution. After the measurement of the cell viability with Resazurin, the medium was removed in the plate and the luciferase substrate solution was added thereto. After the incubation at room temperature for 10 minutes, luminescence of each well was measured with a microplate reader. The luciferase activity derived from the luminescence count in a vehicle-control well treated with 0.2% DMSO alone was defined as 100%, and the luciferase activity after treatment with the test compound was calculated as a percentage, %-of-control, based on the value of the vehicle-control. An EC50 value of the test compound was calculated by curve fitting with GraphPad Prism. The luminescence counts at the concentration of test compound where cytotoxicity was observed were excluded from data analysis. […]

mouse RORγ = target: T2, mouse RORγ (Mus musculus, UniProt P51450); assay: In-vitro reporter gene assay for inhibitory activity against RORγ transcription, Test Method A (GAL4-mRORγ LBD / pG5-Luc in CHO cells); type: cell-based; conditions: luciferase reporter, 2 days
T2 construct: from Ile251 to Lys516 for mouse RORγ; expressed in transfected cells; host or cells: CHO cells (transient co-transfection with pG5-Luc)
T2 sequence (P51450 251-516): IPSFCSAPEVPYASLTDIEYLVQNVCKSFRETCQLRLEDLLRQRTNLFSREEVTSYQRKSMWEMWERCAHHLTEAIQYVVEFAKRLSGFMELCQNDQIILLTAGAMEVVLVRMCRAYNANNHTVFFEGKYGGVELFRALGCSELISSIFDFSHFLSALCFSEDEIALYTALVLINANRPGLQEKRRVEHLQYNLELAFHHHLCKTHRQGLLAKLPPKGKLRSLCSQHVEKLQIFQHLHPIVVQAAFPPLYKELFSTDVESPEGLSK
Experimental: as §1, §2, §3, §4, §5, §6, §7

| SMILES | EC50 (human RORγ) [µM] | EC50 (mouse RORγ) [µM] |
| --- | --- | --- |
| CC(C)(C)CCc1ccc(C23COC(C)(C)C2=CN(CCC(=O)O)C(=O)N3)cc1Cl (single isomer, unassigned) [Example 5] | 0.007 | 0.009 |
| CC(C)(C)CCc1ccc(C23COC(C)(C)C2=CN(CCC(=O)O)C(=O)N3)cc1Cl (single isomer, unassigned) [Example 6] | 0.554 | 0.714 |
| CC(C)(C)CCc1ccc(C23COC(C)(C)C2=CN(c2ccc(C(=O)O)cc2)C(=O)N3)cc1Cl (single isomer, unassigned) [Example 7] | 0.009 | 0.011 |
| CC(C)(C)CCc1ccc(C23COC(C)(C)C2=CN(c2ccc(C(=O)O)cc2)C(=O)N3)cc1Cl (single isomer, unassigned) [Example 8] | 0.427 | 0.381 |
| CC(C)(C)CCc1ccc([C@]23CCC(C)(C)C2=CN(c2ccc(C(=O)O)cc2)C(=O)N3)cc1Cl (single isomer, unassigned) [Example 9] | 0.819 | 1.47 |
| CC(C)(C)CCc1ccc(C23CCC(C)(C)C2=CN(c2ccc(C(=O)O)cc2)C(=O)N3)cc1Cl (single isomer, unassigned) [Example 10, 4-{7a-[3-Chloro-4-(3,3-dimethyl-butyl)phenyl]-5,5-dimethyl-2-oxo-1,2,5,6,7,7a-hexahydro-cyclopentapyrimidin-3-yl}benzoic acid] | 0.016 | 0.03 |
| C[C@@H]1CCC2(c3ccc(CCC(C)(C)C)c(Cl)c3)NC(=O)N(CCC(=O)O)C=C12 (single isomer, unassigned) [Example 11] | 0.021 | 0.022 |
| C[C@@H]1CCC2(c3ccc(CCC(C)(C)C)c(Cl)c3)NC(=O)N(CCC(=O)O)C=C12 (single isomer, unassigned) [Example 12] | 2.58 | 3.43 |
| CC(C)(C)CCc1ccc([C@]23COC(COCc4ccccc4)C2=CN(CCC(=O)O)C(=O)N3)cc1Cl (single isomer, unassigned) [Example 15] | > 8 | > 8 |
| CC(C)(C)CCc1ccc([C@@]23COC(COCc4ccccc4)C2=CN(CCC(=O)O)C(=O)N3)cc1Cl (single isomer, unassigned) [Example 16] | 0.755 | 0.774 |
| CC(C)(C)CCc1ccc([C@]23COC(CO)C2=CN(CCC(=O)O)C(=O)N3)cc1Cl (single isomer, unassigned) [Example 17] | > 20 | > 20 |
| CC(C)(C)CCc1ccc([C@@]23COC(CO)C2=CN(CCC(=O)O)C(=O)N3)cc1Cl (single isomer, unassigned) [Example 18] | 0.773 | 0.452 |
| COCC1OC[C@]2(c3ccc(CCC(C)(C)C)c(Cl)c3)NC(=O)N(CCC(=O)O)C=C12 (single isomer, unassigned) [Example 19] | 17.1 | 15.6 |
| COCC1OC[C@@]2(c3ccc(CCC(C)(C)C)c(Cl)c3)NC(=O)N(CCC(=O)O)C=C12 (single isomer, unassigned) [Example 20] | 0.025 | 0.025 |
| CC(C)(C)CCc1ccc(C23COC(COC(C)(C)C)C2=CN(CCC(=O)O)C(=O)N3)cc1Cl (single isomer, unassigned) [Example 21] | 2.26 | 1.27 |
| CC(C)(C)CCc1ccc(C23COC(COC(C)(C)C)C2=CN(CCC(=O)O)C(=O)N3)cc1Cl (single isomer, unassigned) [Example 22] | 16.2 | > 8 |
| CC(C)(C)CCc1ccc(C23CCC(CCO)C2=CN(CCC(=O)O)C(=O)N3)cc1Cl (single isomer, unassigned) [Example 25] | 0.092 | 0.105 |
| CC(C)(C)CCc1ccc(C23CCC(CCOCc4ccccc4)C2=CN(CCC(=O)O)C(=O)N3)cc1Cl (single isomer, unassigned) [Example 26] | 0.351 | 0.243 |
